The values that follow come from PubChem BioAssay (NCI).

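Compound exposure: 48 hours, 5 concentrations, 96-well plates. The concentration for full growth arrest is given as TGI.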

A word on the TGI: it is the concentration giving total growth inhibition.

Test systems include HOP-92 NSCLC; HCT-116 colon; MALME-3M melanoma; EKVX NSCLC; RXF 393 renal; SK-OV-3 ovarian; NCI-H23 lung; CCRF-CEM leukemia; IGROV1 ovarian; TK-10 renal; A549 NSCLC; HS 578T breast; SK-MEL-28 melanoma; MDA-MB-435; SK-MEL-5 melanoma; NCI-H460 lung; SF-295 CNS; SR leukemia; T-47D breast.
Common to all, as to test: DTP human tumour cell line panel, 48 h

As to `CO[C@@H]1C[C@H]2N3CC[C@@]2(c2cc4c(cc2C3)OCO4)[C@H]2O[C@@H]12`, the TGI with HOP-92 NSCLC, in the test with HCT-116 colon, in the test on MALME-3M melanoma, with EKVX NSCLC, in the test on RXF 393 renal and with SK-OV-3 ovarian was over 100 µM throughout. Also, the TGI in the test on NCI-H23 lung, in the test with CCRF-CEM leukemia, in the test on IGROV1 ovarian, in the test on TK-10 renal, in the test on A549 NSCLC and with HS 578T breast was over 100 µM each time. The TGI in the test on SK-MEL-28 melanoma is over 100 µM; in the test on MDA-MB-435, over 100 µM; with SK-MEL-5 melanoma it was 0.303 µM; in the test with NCI-H460 lung, over 100 µM; in the test with SF-295 CNS, over 100 µM.
`O=C(CN1CCOCC1)c1ccc2c(c1)oc(=O)n2CCN1CCCC1`: the TGI with HCT-116 colon, in the test with MALME-3M melanoma, with EKVX NSCLC, in the test with RXF 393 renal, with SK-OV-3 ovarian and in the test with SR leukemia was over 100 µM each time. Also, the TGI in the test with NCI-H23 lung, with CCRF-CEM leukemia, in the test on IGROV1 ovarian, in the test on TK-10 renal, in the test with HS 578T breast and in the test on SK-MEL-28 melanoma was over 100 µM throughout. Also, the TGI in the test with MDA-MB-435, in the test with SK-MEL-5 melanoma, with NCI-H460 lung and with SF-295 CNS was over 100 µM throughout.
Consider `CCOC(=O)c1c(-c2ccc(Br)cc2)ccn1C`, for which the TGI in the test with HCT-116 colon, in the test with MALME-3M melanoma, with EKVX NSCLC, in the test with RXF 393 renal, with SK-OV-3 ovarian and with NCI-H23 lung was over 10 µM throughout. Besides, the TGI in the test with CCRF-CEM leukemia, in the test on IGROV1 ovarian, in the test on TK-10 renal, in the test with A549 NSCLC, with HS 578T breast and in the test with SK-MEL-28 melanoma was over 10 µM each time. Besides, the TGI with MDA-MB-435, with SK-MEL-5 melanoma, with NCI-H460 lung, in the test with T-47D breast and with SF-295 CNS was over 10 µM throughout.
As to `NC(Cc1ccc(S(=O)(=O)O)cc1)C(=O)NC(Cc1ccc(S(=O)(=O)O)cc1)C(=O)NC(Cc1ccc(S(=O)(=O)O)cc1)C(=O)O` (configuration not stated), the TGI in the test on HCT-116 colon, in the test on MALME-3M melanoma, in the test on EKVX NSCLC, with RXF 393 renal, in the test with NCI-H23 lung and with CCRF-CEM leukemia was over 100 µM each time. The concentration for total growth inhibition (TGI) in the test on IGROV1 ovarian, in the test with TK-10 renal, in the test with A549 NSCLC, in the test with HS 578T breast, in the test with SK-MEL-28 melanoma and with MDA-MB-435 was over 100 µM each time. The total growth inhibition concentration (TGI) in the test with SK-MEL-5 melanoma, in the test on NCI-H460 lung, in the test with T-47D breast and in the test with SF-295 CNS was over 100 µM throughout.
Regarding `N#Cc1c(O)cc(=O)n2c1[nH]c1ccccc12`, the TGI in the test on HOP-92 NSCLC, in the test with HCT-116 colon, in the test on MALME-3M melanoma, with EKVX NSCLC, with RXF 393 renal and in the test with SK-OV-3 ovarian was over 100 µM throughout. Further, the TGI in the test on SR leukemia, in the test with NCI-H23 lung, in the test on CCRF-CEM leukemia, in the test on IGROV1 ovarian, in the test on TK-10 renal and with A549 NSCLC was over 100 µM throughout. Besides, the TGI with HS 578T breast, with MDA-MB-435, in the test on SK-MEL-5 melanoma, in the test on NCI-H460 lung and in the test on SF-295 CNS was over 100 µM throughout.
With `SCc1ccc(CS)s1`, the TGI with HOP-92 NSCLC, in the test on HCT-116 colon, in the test with EKVX NSCLC, with SK-OV-3 ovarian, in the test with SR leukemia and in the test on NCI-H23 lung was over 100 µM in each case. In addition, the TGI in the test on CCRF-CEM leukemia, with IGROV1 ovarian, in the test with TK-10 renal, in the test on A549 NSCLC, in the test with SK-MEL-28 melanoma and in the test on MDA-MB-435 was over 100 µM throughout. Moreover, the TGI with SK-MEL-5 melanoma, with NCI-H460 lung, with T-47D breast and with SF-295 CNS was over 100 µM each time.
With `N#Cc1nc(-c2ccccn2)oc1N`, the TGI in the test on HOP-92 NSCLC, in the test with HCT-116 colon, with MALME-3M melanoma, in the test with EKVX NSCLC, in the test on RXF 393 renal and in the test with SK-OV-3 ovarian was over 100 µM in each case. Further, the TGI in the test on SR leukemia, in the test on NCI-H23 lung, in the test on CCRF-CEM leukemia, in the test on IGROV1 ovarian, in the test on TK-10 renal and with HS 578T breast was over 100 µM in each case. Besides, the concentration for total growth inhibition (TGI) in the test with SK-MEL-28 melanoma, in the test with MDA-MB-435, in the test with SK-MEL-5 melanoma, with NCI-H460 lung and in the test on SF-295 CNS was over 100 µM throughout.
In the case of `CCN(CC)c1ccc2cc(-c3nnc(-c4ccccc4O)o3)c(=O)oc2c1`, the TGI in the test on HCT-116 colon was 21.9 µM; in the test with MALME-3M melanoma it was 33.6 µM; in the test on EKVX NSCLC it was 43.4 µM; in the test on SK-OV-3 ovarian, over 100 µM; with SR leukemia, 33.7 µM; in the test with NCI-H23 lung it was 24.8 µM. Further, the TGI in the test with CCRF-CEM leukemia was found to be 8.63 µM; with IGROV1 ovarian it was 13.9 µM; in the test with A549 NSCLC, 29.1 µM; in the test with HS 578T breast, 57.6 µM; with SK-MEL-28 melanoma, 32.3 µM; in the test on MDA-MB-435, 32.7 µM. In addition, the total growth inhibition concentration (TGI) in the test with SK-MEL-5 melanoma was 25.2 µM; in the test with NCI-H460 lung, 27.9 µM; in the test with SF-295 CNS it was 29.7 µM.
`COC(=O)c1ccccc1/C=C1\Cc2c(C)cc(C)cc2C1=O`: the TGI in the test on HOP-92 NSCLC, in the test on HCT-116 colon, with MALME-3M melanoma, with EKVX NSCLC, in the test with RXF 393 renal and in the test with SR leukemia was over 100 µM in each case. Moreover, the total growth inhibition concentration (TGI) in the test with CCRF-CEM leukemia, in the test with IGROV1 ovarian, with TK-10 renal, in the test with A549 NSCLC, in the test with HS 578T breast and with SK-MEL-28 melanoma was over 100 µM each time. Further, the TGI with SK-MEL-5 melanoma, in the test on NCI-H460 lung, in the test on T-47D breast and with SF-295 CNS was over 100 µM in each case.
